Assay results taken from ChEMBL document CHEMBL3085700 (J Med Chem, 2013).
Active and inactive are the calls of the source. No cut-off for these calls is given here.

Experiments:
[1] = target: T1, Monoacylglycerol lipase ABHD6 (Homo sapiens) (UniProt Q9BV23); assay: Inhibition of human ABHD6 overexpressed in HEK293 cells assessed as 2-AG hydrolysis at 1 uM by fluorescent glycerol assay; format: cell-based
T1 sequence (whole entry): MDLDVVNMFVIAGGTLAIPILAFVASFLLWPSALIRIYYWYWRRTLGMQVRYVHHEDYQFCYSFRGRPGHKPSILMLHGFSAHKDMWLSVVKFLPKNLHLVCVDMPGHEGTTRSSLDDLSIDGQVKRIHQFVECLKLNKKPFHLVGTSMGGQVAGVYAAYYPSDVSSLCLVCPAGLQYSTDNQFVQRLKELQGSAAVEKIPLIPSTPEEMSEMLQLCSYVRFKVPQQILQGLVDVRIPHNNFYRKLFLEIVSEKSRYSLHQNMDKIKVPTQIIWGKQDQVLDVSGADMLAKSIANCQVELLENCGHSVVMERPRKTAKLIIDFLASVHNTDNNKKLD

[2] = target: T2, Fatty-acid amide hydrolase 1 (Rattus norvegicus) (UniProt P97612); assay: Inhibition of FAAH in rat RBL2H3 cells assessed as blockade of [3H]-anandamide uptake at 0.0001 to 1 uM incubated for 15 mins prior to [3H]-anandamide addition measured after 10 mins by scintillation spectroscopic analysis in presence of JJKK-048; format: cell-based; details: RBL-2H3
T2 sequence (whole entry): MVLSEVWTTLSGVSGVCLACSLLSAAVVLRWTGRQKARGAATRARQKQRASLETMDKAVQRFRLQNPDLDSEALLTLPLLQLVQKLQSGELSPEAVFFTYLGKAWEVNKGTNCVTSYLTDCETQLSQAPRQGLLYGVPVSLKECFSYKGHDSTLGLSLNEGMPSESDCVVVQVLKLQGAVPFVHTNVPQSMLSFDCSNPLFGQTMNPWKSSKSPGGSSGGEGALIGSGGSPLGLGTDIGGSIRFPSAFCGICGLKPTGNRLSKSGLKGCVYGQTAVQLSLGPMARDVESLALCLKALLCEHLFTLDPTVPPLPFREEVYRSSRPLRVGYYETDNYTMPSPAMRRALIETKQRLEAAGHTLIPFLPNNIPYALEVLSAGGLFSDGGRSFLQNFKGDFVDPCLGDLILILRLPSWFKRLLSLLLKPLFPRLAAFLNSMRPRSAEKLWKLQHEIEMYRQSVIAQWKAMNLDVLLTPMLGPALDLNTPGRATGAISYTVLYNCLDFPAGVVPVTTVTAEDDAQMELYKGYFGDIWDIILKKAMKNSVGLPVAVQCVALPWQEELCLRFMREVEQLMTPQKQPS

[3] = target: T2, Fatty-acid amide hydrolase 1 (Rattus norvegicus); assay: Inhibition of FAAH in rat RBL2H3 cells assessed as blockade of [3H]-anandamide uptake at 1 uM incubated for 15 mins prior to [3H]-anandamide addition measured after 10 mins by scintillation spectroscopic analysis; format: cell-based; details: RBL-2H3
[4] = target: T3, Lysophosphatidylserine lipase ABHD12 (Homo sapiens) (UniProt Q8N2K0); assay: Inhibition of human ABHD12 overexpressed in HEK293 cells assessed as 2-AG hydrolysis at 1 uM by fluorescent glycerol assay; format: cell-based
T3 sequence (whole entry): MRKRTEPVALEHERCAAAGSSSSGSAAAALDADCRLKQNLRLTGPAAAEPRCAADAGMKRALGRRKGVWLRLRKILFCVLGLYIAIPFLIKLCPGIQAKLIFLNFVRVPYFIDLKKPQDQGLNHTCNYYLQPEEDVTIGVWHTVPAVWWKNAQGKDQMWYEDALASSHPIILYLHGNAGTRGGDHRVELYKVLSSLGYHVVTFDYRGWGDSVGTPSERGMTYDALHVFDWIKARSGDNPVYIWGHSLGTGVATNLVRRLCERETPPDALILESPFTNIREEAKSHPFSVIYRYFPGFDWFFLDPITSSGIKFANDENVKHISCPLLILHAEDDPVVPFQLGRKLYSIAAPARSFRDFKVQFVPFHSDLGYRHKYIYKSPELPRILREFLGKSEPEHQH

[5] = target: T4, Fatty-acid amide hydrolase 1 (Rattus norvegicus, UniProt P97612); assay: Inhibition of FAAH in rat RBL2H3 cells assessed as blockade of [3H]-anandamide uptake incubated for 15 mins prior to [3H]-anandamide addition measured after 10 mins by scintillation spectroscopic analysis; format: cell-based, RBL-2H3
T4 sequence (P97612 whole entry): T2 sequence (whole entry)

Monoglyceride lipase = target: T5, Monoglyceride lipase (Homo sapiens, UniProt Q99685); assay: Inhibition of human recombinant MAGL overexpressed in HEK cells using 2-AG as substrate preincubated for 10 mins before substrate addition measured after 10 mins by HPLC analysis; format: cell-based, HEK293; details: read-out: IC50
T5 sequence (Q99685 whole entry): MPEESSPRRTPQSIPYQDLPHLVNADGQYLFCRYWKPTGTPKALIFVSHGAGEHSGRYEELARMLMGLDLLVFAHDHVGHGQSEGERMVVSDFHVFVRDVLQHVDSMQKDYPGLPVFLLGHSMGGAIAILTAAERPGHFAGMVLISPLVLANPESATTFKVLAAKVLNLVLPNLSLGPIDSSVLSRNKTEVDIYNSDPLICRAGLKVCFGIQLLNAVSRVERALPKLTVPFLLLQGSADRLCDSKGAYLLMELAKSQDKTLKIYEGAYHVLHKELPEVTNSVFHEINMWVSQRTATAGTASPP

[6] = target: T6, Fatty-acid amide hydrolase 1 (Homo sapiens, UniProt O00519); assay: Inhibition of human recombinant FAAH overexpressed in African green monkey COS7 cells using [3H]-anandamide as substrate preincubated for 10 mins before substrate addition measured after 10 mins by liquid scintillation counting analysis; format: cell-based, COS-7
T6 sequence (O00519 whole entry): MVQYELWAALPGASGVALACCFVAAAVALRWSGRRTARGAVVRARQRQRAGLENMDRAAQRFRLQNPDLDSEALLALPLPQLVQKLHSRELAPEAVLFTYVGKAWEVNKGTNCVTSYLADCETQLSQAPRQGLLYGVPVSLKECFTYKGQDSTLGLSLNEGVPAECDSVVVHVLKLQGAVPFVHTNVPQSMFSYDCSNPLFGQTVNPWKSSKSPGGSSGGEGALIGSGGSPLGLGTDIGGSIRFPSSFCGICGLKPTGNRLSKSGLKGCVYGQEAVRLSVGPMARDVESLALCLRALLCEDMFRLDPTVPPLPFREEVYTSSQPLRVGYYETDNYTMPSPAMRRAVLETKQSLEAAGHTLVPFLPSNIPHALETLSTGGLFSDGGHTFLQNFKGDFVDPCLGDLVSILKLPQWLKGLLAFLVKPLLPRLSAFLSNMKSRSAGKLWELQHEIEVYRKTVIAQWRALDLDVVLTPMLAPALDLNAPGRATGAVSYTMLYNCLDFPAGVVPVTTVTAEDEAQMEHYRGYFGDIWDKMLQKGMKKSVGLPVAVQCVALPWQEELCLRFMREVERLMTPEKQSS

[7] = target: T2, Fatty-acid amide hydrolase 1 (Rattus norvegicus); assay: Inhibition of FAAH in rat RBL2H3 cells assessed as blockade of [3H]-anandamide uptake at 0.1 uM incubated for 15 mins prior to [3H]-anandamide addition measured after 10 mins by scintillation spectroscopic analysis; format: cell-based; details: RBL-2H3
[8] = target: T7, Fatty-acid amide hydrolase 1 (Homo sapiens) (UniProt O00519); assay: Reversible inhibition of human recombinant FAAH overexpressed in African green monkey COS7 cells using […] as substrate assessed as recovery of enzyme activity at 20 x IC50 preincubated for 60 mins followed by 500 fold dilution measured after 10 mins by HPLC analysis; format: cell-based; details: COS-7
T7 sequence (whole entry): T6 sequence (O00519 whole entry)

[9] = target: T7, Fatty-acid amide hydrolase 1 (Homo sapiens); assay: Inhibition of human recombinant FAAH overexpressed in African green monkey COS7 cells using [3H]-anandamide as substrate at 300 uM preincubated for 10 to 60 mins by liquid scintillation counting analysis; format: cell-based; details: COS-7

Row | inhibition [7] | inhibition [8] | inhibition [9] | Structure (SMILES) | inhibition [1] | inhibition [2] | inhibition [3] | inhibition [4] | IC50 [5] [nM] | IC50 (Monoglyceride lipase) [nM] | IC50 ([6]; read-out: IC50) [nM] | IC50 ([6]; read-out: pIC50 (converted)) [nM]
1 | – | – | – | COc1nn(C(C)c2ccc(N(c3ccccc3)c3ccccc3)cc2)c(=O)o1 (racemic) | inactive | Active | Active | inactive | 11 | 630 | 120 | 115
2 | Active | – | – | O=C(N1CCC(C(c2ccc3c(c2)OCO3)c2ccc3c(c2)OCO3)CC1)n1cncn1 | – | – | – | – | – | – | – | –
3 | – | inactive | Active | O=C(Nc1ccccc1)N1CCC(Cc2ccc3ccccc3n2)CC1 | – | – | – | – | – | – | 320 | 324
